First the molecules themselves.
B1: PscD (natural protein, UniProt Q8KEP5 1-143, looked up)
chain: MQPQLSRPQTASNQVRKAVSGPWSGNAVHKAEKYFITSAKRDRDGKLQIELVPASGRRKLSPTPEMIRRLIDGEIEIYILTTQPDIAIDMNKEIIDMENRYVIDFDKRGVKWTMREIPVFYHEGKGLCVELHNKIYTLDQFFK
notes: PscD subunit of the reaction center of Chlorobaculum tepidum; also called PscD subunit
B2: Fenna-Matthews-Olson (FMO) complex (natural protein, UniProt Q46393 1-366, looked up)
chain: MALFGSNDVTTAHSDYEIVLEGGSSSWGKVKARAKVNAPPASPLLPADCDVKLNVKPLDPAKGFVRISAVFESIVDSTKNKLTIEADIANETKERRISVGEGMVSVGDFSHTFSFEGSVVNLFYYRSDAVRRNVPNPIYMQGRQFHDILMKVPLDNNDLIDTWEGTVKAIGSTGAFNDWIRDFWFIGPAFTALNEGGQRISRIEVNGLNTESGPKGPVGVSRWRFSHGGSGMVDSISRWAELFPSDKLNRPAQVEAGFRSDSQGIEVKVDGEFPGVSVDAGGGLRRILNHPLIPLVHHGMVGKFNNFNVDAQLKVVLPKGYKIRYAAPQYRSQNLEEYRWSGGAYARWVEHVCKGGVGQFEILYAQ
notes: FMO bacteriochlorophyll a protein of Chlorobaculum tepidum TLS; homotrimer, each monomer with eight BChl a; Two trimers (FMO1, FMO2) of the same protein sit on one reaction center in the RC-FMO2 structure; they are one molecule here; also called FMO trimer; FMO1

One data set has as its target T1, PscB (Chlorobaculum tepidum, UniProt Q8KAY1).
T1 construct: native subunit in the RC-FMO2 supercomplex, no tags; loop 17-129 unmodelled; with Photosystem P840 reaction center, large subunit
The data set is described as follows: cryo-EM structure, RC-FMO2 […] Å. In kind it is binding. As to conditions: FA and FB clusters.

The target of data set [1] is T2, GsbRC core (PscA dimer) in the RC-FMO2 photosynthetic supercomplex (Chlorobaculum tepidum, UniProt Q8KAY0).
T2 construct: gene CT2020; native complex from membranes of C. tepidum, DDM-solubilized, no tags; homodimeric PscA core with associated subunits; PscE 59 residues modeled; with Photosystem P840 reaction center iron-sulfur protein; Cytochrome c (photosystem P840 reaction center cytochrome c-551); Photosystem P840 reaction center protein PscD; PscE, accessory membrane subunit; Ric1 protein; Bacteriochlorophyll a protein
The data set is described as follows: cryo-EM structure, RC-FMO2 […] Å. In kind it is binding.

Data set [2] deals with B2. The data set is described as follows: cryo-EM structure; single-particle cryo-EM of the native supercomplex extracted with DDM from C. tepidum membranes; RC-FMO2 at 3.08 Å (local 2.92 and 3.06 Å), RC-FMO1 at 3.49 Å; 20 mM Tris-Cl pH 8.0, 200 mM NaCl, 0.17 mM DDM. Conditions: both partners purified.
Data set [3] concerns the molecule itself. The description is as above.

As for `[S]1[Fe]2[S]3[S]4[Fe][S]2[Fe]4[Fe]13` [SF4, iron-sulfur cluster], the “cryo-EM structure, RC-FMO2 3.08 Å” value on PscB is “Cartoons are the protein residues that interact with the FeS clusters”; in data set [1] (FX cluster at PscA dimer), “The FeS clusters and P840 dimer that drive the ETC in RC-FMO2 are arranged similarly”.
As to `CC(C)=CCC/C(C)=C/C=C/C(C)=C/C=C/C(C)=C/C=C/C=C(C)/C=C/C=C(C)/C=C/c1c(C)ccc(C)c1C` [F26, chlorobactene], in data set [1] (three molecules in RC core), the “cryo-EM structure, RC-FMO2 3.08 Å” value is recorded as “four Chl a, three chlorobactenes (F26)”.
As for B1, in data set [2], the binding result is reported as “binds”.
In the case of B2, in data set [3], the binding result is reported as “binds”.

These data come from publication PMC9529944, “Molecular asymmetry of a photosynthetic supercomplex from green sulfur bacteria” (Nature Communications, 2022).
